We go through five molecules from patent US20170340658A1, “COMBINED USE OF A CHEMOTHERAPEUTIC AGENT AND A CYCLIC DINUCLEOTIDE FOR CANCER TREATMENT” (INVIVOGEN, priority 2014, published 2017).

Molecules are shown by their SMILES.

In one experiment the test system is Panc02 pancreatic tumors. Nature of the experiment: Orthotopic Panc02 pancreatic tumors in mice, intercalated combinations (Example 8). The experiment is classed as in vivo, mouse. Particulars: for mean tumor volume: Day 30, CDN 5 mg/kg i.t. Day 9, i.v. Days 16, 23, gemcitabine 100 mg/kg i.p. Days 12, 19, 26; for # Mice with metastases / Average # metastases per mouse: Day 30 post-implantation, CDN 5 mg/kg, gemcitabine 100 mg/kg i.p. The method, then: • Species evaluated: mouse • Tumor model: Panc02 • Treatment tested: intercalated combinations of a CDN (either CL592, CL614 or CL656) and gemcitabine • Reference compounds: gemcitabine, CL592, CL614 and CL656 • Parameters evaluated: tumor growth, and incidence of metastases
On Day 1, 55 mice (C57/BL6; male; 10 weeks old; 23 g to 25 g) each received an intrapancreatic injection of Panc02 cells (1×10^6 cells in 50 μL serum-free medium).
Day 9: Groups 3 to 8 each received an intratumoral injection of the appropriate CDN (CL592, CL614 or CL656, respectively; 50 μL; 5 mg/kg in 0.9% saline)
Day 12: Group 2 and Groups 6 to 8 each received an intraperitoneal injection of gemcitabine (200 μL; 100 mg/kg in 0.9% saline)
Day 16: Groups 3 to 8 each received an intravenous injection of the appropriate CDN (CL592, CL614 or CL656, respectively; 50 μL; 5 mg/kg in 0.9% saline)
Day 19: Group 2 and Groups 6 to 8 were treated as on Day 12.
Day 23: Groups 3 to 8 were treated as on Day 16.
Day 26: Group 2 and Groups 6 to 8 were treated as on Days 12 and 19.
Day 30: Each mouse was checked for tumor presence and metastases.

Another experiment deals with Panc02 tumors. Nature of the experiment: Murine model of orthotopic Panc02 pancreatic tumors (Example 4). Particulars: for INCIDENCE OF METASTASIS / PRE-SACRIFICE MORTALITY: Day 34. Type of experiment: in vivo, mouse. An excerpt:
• Species evaluated: mouse • Tumor model: Panc02 (murine pancreatic tumor cell line) • Treatments tested: gemcitabine monotherapy, c-AIMP monotherapy, and gemcitabine combined with c-AIMP • Clinical parameters evaluated: tumor volume, incidence of metastasis and mortality • Administration routes evaluated: intravenous (i.v.) or intratumoral (i.t.) injection (depending on experiment) • On Day 1, 30 mice (C57BL/6; male) received an orthotopic injection of Panc02 tumor cells (1×10^6) in their pancreas. The mice were then divided into six groups of five animals. Each group received a different treatment, as outlined below: • Group 1: saline (by i.v. injection) on Days 7, 10, 14, 17, 21 and 24; • Group 2: gemcitabine monotherapy (100 mg/kg; i.p.); on Days 7, 10, 14, 17, 21 and 24; • Group 3: c-AIMP monotherapy (25 mg/kg; i.t.) on Days 7 and 21; • Group 4: c-AIMP monotherapy (25 mg/kg; i.v.) on Days 7, 14 and 21; • Group 5: c-AIMP (25 mg/kg; i.t.) followed (5 h later) by gemcitabine (100 mg/kg; i.p.) on Day 7; and gemcitabine (100 mg/kg; i.p.) on Days 10, 14, 17, 21 and 24; • Group 6: c-AIMP (25 mg/kg; i.v.) followed (5 h later) by gemcitabine (100 mg/kg; i.p.) on Day 7; and gemcitabine (100 mg/kg; i.p.) on Days 10, 14, 17, 21 and 24;
At days 7, 21/24, 28 and 34, the mice were assessed for tumor volume, incidence of metastasis and mortality.

Another experiment relates to Type I interferons. Nature of the experiment: Type I interferon induction in sera of CDN-treated mice (Example 3). Type of experiment: in vivo, mouse. Particulars: 10 mg/kg i.v., 4 h post-treatment, FIG. 5. The source says:
(§1) • Species evaluated: mouse • Cyclic dinucleotides tested: CL604, CL606, CL609, CL611 and CL614 • Reference compound: c-AIMP and saline • Cytokines evaluated: IFN-α/β (using RAW ISG54 reporter cells) and IL-6 (by ELISA)
(§2) Twenty-one mice (Swiss; female; mean age: 8 weeks) were divided into seven groups of three: one group served as control (saline) and the other six groups were each treated with a cyclic dinucleotide (either c-AIMP, CL604, CL606, CL609, CL611 or CL614). On Day −7, blood samples for basal cytokine levels were collected from all mice and stored at −20° C. until analysis. On Day 1, the mice were treated with either 200 μL of physiologic serum (containing 0.9% NaCl) or 200 μL of a solution of a cyclic dinucleotide (dose: 10 mg/kg) in physiologic serum (containing 0.9% NaCl), by intravenous (i.v.) injection. Blood samples were collected from the mice at 4 h post-injection, and then stored at −20° C. until analysis. Cytokine induction was measured in the sera from the blood samples.

A further experiment has as its system IL-6. Nature of the experiment: IL-6 induction in sera of CDN-treated mice, ELISA (Example 3). The experiment is classed as in vivo, mouse. The conditions noted are these: 10 mg/kg i.v., 4 h post-treatment, FIG. 6.
From the text: Interleukin-6 was quantified using an enzyme-linked immunoassay (ELISA) according to the manufacturer's instructions (R&D Systems).
as §1, §2
Background: In an ELISA, binding on a coated surface is turned into a signal by an enzyme label.

A further experiment has as its system DT6606 pancreatic tumors. The conditions noted are these: Day 36 vs pre-treatment tumor volume; CL592 i.t. Day 13, 5 mg/kg i.v. Days 20, 27; gemcitabine 100 mg/kg i.p. Days 16, 23, 30.
Another experiment relates to PC-1.0 tumors. Briefly: Hamster model of orthotopic PC-1.0 pancreatic tumors (Example 5). The experiment is classed as in vivo. The conditions noted are these: gemcitabine monotherapy 50 mg/Kg i.p. An excerpt:
• Species evaluated: hamster • Tumor model: PC-1.0 (hamster pancreatic tumor cell line (Egami, Tomioka, Tempero, Kay, & Pour, 1991)) • Treatments tested: gemcitabine monotherapy, and gemcitabine combined with c-AIMP • Clinical parameters evaluated: tumor volume, incidence of metastasis and mortality • Administration routes evaluated: intravenous (i.v.) vs. intratumoral (i.t.) injection (depending on experiment) for CL592 • On Day 1, 22 hamsters (Golden Syrian) received an orthotopic injection of PC-1.0 tumor cells (1×10^6) in the tail of their pancreas. The hamsters were then divided into four groups of five or six animals. Each group received a different treatment, as outlined below: • Group 1 (n=5) received saline (by i.v. injection) on Days 8, 15 and 22; • Group 2 (n=6): c-AIMP (25 mg/Kg; i.v.) followed by gemcitabine (50 mg/Kg; i.p.) on Day 8; and gemcitabine (50 mg/Kg; i.p.) on Days 15 and 22; • Group 3 (n=6): c-AIMP (25 mg/Kg; i.t.) followed by gemcitabine (50 mg/Kg; i.p.) on Day 8; and gemcitabine (50 mg/Kg; i.p.) on Days 15 and 22; • Group 4 (n=5): gemcitabine monotherapy (50 mg/Kg; i.p.) at Days 8, 15 and 22.
At days 8, 21/24, 28 and 34, the mice were assessed for tumor volume, incidence of metastasis and mortality.

[1] abbreviates: c-AIMP 25 mg/kg i.t., alone or with gemcitabine 100 mg/kg i.p.
Where [2] appears, read: c-AIMP 25 mg/kg i.v., alone or with gemcitabine 100 mg/kg i.p.
Where [3] appears, read: gemcitabine monotherapy 100 mg/kg i.p.

Description for DT6606 pancreatic tumors: • Tumor line evaluated: DT6606 (Partecke, 2011) • Treatment tested: intercalated combination of CL592 and gemcitabine • Reference compound: gemcitabine • Parameter evaluated: tumor growth
On Day 1, 20 mice (C57/BL6; female; 10 weeks old; 18 g to 22 g) received an intrapancreatic injection of DT6606 cells (5×10^5 cells in 30 μL serum-free medium). One mouse was sacrificed before treatment due to a renal deformation.
The groups were then treated according to the treatment regimen below.
Day 13: Groups 1 and 2 received an intratumoral injection of saline solution (50 μL), and Groups 3 and 4, an intratumoral injection of CL592 (50 μL; 2.5 mg/mL in saline buffer;).
Day 16: Groups 2 and 4 received an intraperitoneal tail injection of gemcitabine (100 μL solution/100 g body mass; 10 mg/mL in saline buffer; dose: 100 mg/kg).
Day 20: Groups 3 and 4 received an intravenous tail injection of CL592 (200 μL; 0.5 mg/mL in saline buffer; dose: 5 mg/kg).
Day 23: Groups 2 and 4 were treated as on Day 16.
Day 27: Groups 3 and 4 were treated as on Day 20.
Day 30: Groups 2 and 4 were treated as on Days 16 and 23.
Day 36: Each mouse was checked for tumor presence. The volume of each observed tumor was measured and the mice were then sacrificed.
Tumor growth (expressed as a percentage) was calculated as follows:
(([tumor volume at day 36]−[pre-treatment tumor volume])/[pre-treatment tumor volume])×100%

As for `Nc1ncnc2c1ncn2C1OC2COP(=O)(S)O[C@@H]3C(COP(=O)(S)O[C@H]2[C@H]1F)OC(n1cnc2c(=O)[nH]cnc21)[C@@H]3F` (mixture of isomers) [CL656, c-[2′FdAMP(S)-2′FdIMP(S)]], in the experiment with Panc02 pancreatic tumors, the mean tumor volume is on record as 340.2 mm^3, the “# Mice with metastases” value is 40% (2/5) and the “Average # metastases per mouse” value stood at 3.

Take `Nc1ncnc2c1ncn2[C@@H]1O[C@@H]2COP(=O)(O)O[C@H]3[C@@H](O)[C@H](n4cnc5c(=O)[nH]cnc54)O[C@@H]3COP(=O)(O)O[C@H]2[C@H]1O` [CL592, c-AIMP]: in the experiment on Panc02 pancreatic tumors, the mean tumor volume came to 231.0 mm^3, the “# Mice with metastases” value was 20% (1/5) and the “Average # metastases per mouse” value came to 2. Further, in the experiment with Panc02 tumors (setting [1]), the “INCIDENCE OF METASTASIS” value turned out to be 0% and the “PRE-SACRIFICE MORTALITY” value was determined as 0%. In the experiment with Panc02 tumors (setting [2]), the “INCIDENCE OF METASTASIS” value was 0% and the “PRE-SACRIFICE MORTALITY” value is given as 0%. Moreover, the reducing tumor growth entry with Panc02 tumors (FIG. 7, c-AIMP 25 mg/kg i.v. or i.t., comparison among all treatments) is “most effective ones at reducing tumor growth”.

In the case of `Nc1ncnc2c1ncn2C1OC2COP(=O)(O)O[C@H]3C(n4cnc5c(=O)[nH]cnc54)OC(COP(=O)(O)O[C@@H]1[C@@H]2O)[C@H]3O` (stereo partly drawn) [CL611, (2′,2′)c-AIMP], in the experiment with Type I interferons, the “induction of Type I interferons in sera” value is on record as “all of the tested cyclic dinucleotides except CL611 strongly induced Type I interferons”. Further, the “induction of IL-6 in sera” value in the experiment with IL-6 is recorded as “all of the cyclic dinucleotides except CL611 induced IL-6”.

Turning to `Nc1ncnc2c1ncn2C1OC2COP(=O)(O)O[C@@H]3C(COP(=O)(O)O[C@H]2[C@H]1F)OC(n1cnc2c(=O)[nH]cnc21)[C@@H]3F` (stereo partly drawn) [CL614, c-(2′FdAMP-2′FdIMP)], in the experiment with Panc02 pancreatic tumors, the mean tumor volume worked out at 318.6 mm^3, the “# Mice with metastases” value is given as 40% (2/5) and the “Average # metastases per mouse” value is 5.

With `Nc1ccn([C@@H]2O[C@H](CO)[C@@H](O)C2(F)F)c(=O)n1` [gemcitabine, Gemcitabine], the mean tumor growth in the experiment with DT6606 pancreatic tumors came to 22%. In addition, in the experiment on Panc02 pancreatic tumors, the mean tumor volume amounted to 380.7 mm^3, the “# Mice with metastases” value is given as 88% (7/8) and the “Average # metastases per mouse” value is 13. In the experiment with Panc02 tumors (setting [3]), the “INCIDENCE OF METASTASIS” value worked out at 50% and the “PRE-SACRIFICE MORTALITY” value came out at 20%. The “PRE-SACRIFICE MORTALITY” value with Panc02 tumors (gemcitabine monotherapy 100 mg/kg i.p., listed as GemC) came out at 20%. Further, in the experiment with PC-1.0 tumors, the “INCIDENCE OF METASTASES” value amounted to 100%; the “NUMBER OF METASTASES PER HAMSTER, Hamster 1” value was determined as 13; the “NUMBER OF METASTASES PER HAMSTER, Hamster 2” value turned out to be 15; the “NUMBER OF METASTASES PER HAMSTER, Hamster 3” value turned out to be 3. In addition, in the experiment with PC-1.0 tumors, the “NUMBER OF METASTASES PER HAMSTER, Hamster 4” value is listed as 10 and the “NUMBER OF METASTASES PER HAMSTER, Hamster 5” value is recorded as 5. In addition, the “INCIDENCE OF METASTASES” value in the experiment with PC-1.0 tumors (listed as GemC) was 100%.
